Assay results from patent US20230172837A1, “AGENT FOR PREVENTING AND/OR IMPROVING PHOTOAGING AND/OR DERMAL PIGMENTATION, COSMETIC METHOD USING SAME, AND COSMETIC DEVICE TO BE APPLIED IN SAID METHOD” (SHISEIDO COMPANY, LTD., priority 2020, published 2023).

System: M0 macrophages differentiated from THP-1
Assay: Intracellular activity of M0 macrophages, flux analyzer (OCR)
Format: cell-based, human
Conditions: M0, 3 ppm, 48 hours, versus solvent (DMSO) alone
Protocol: M0 macrophages, M1 macrophages and M2 macrophages induced to differentiate from THP-1 by the same method as Experiment 2 were measured for intracellular activity using an XFe24 (24-well) extracellular flux analyzer by Agilent Technologies (previously Seahorse Bioscience) (hereunder referred to as “flux analyzer”), with reference to Nat Immunol, 2014. 15(9): pp 846-855 (NPL 14). A flux analyzer is a device that allows non-invasive, highly sensitive periodic measurement of cells to determine the state of glycolysis as the main cellular energy metabolism pathway, and aerobic respiration by mitochondria.
Using a flux analyzer, oligomycin (ATP synthase inhibitor) (“Oligo”), FCCP (uncoupling agent) and rotenone (mitochondrial complex I inhibitor)+antimycin A (mitochondria complex III inhibitor) (“Rot+Ant”) were added at predetermined times and the oxygen consumption rate (OCR) and extracellular acidification rate (ECAR) were measured. The ECAR and OCR values used were the basal OCR and basal ECAR values at 18.3 minutes after measurement. Each measured value was calibrated by the number of cells determined by counting the cell nuclei stained by addition of Hoechst.
M0, M1 and M2 differentiated from THP-1 were prepared by the same method as Experiment 2, and hakushinin extract (hakushinin hydrolysate) prepared by the same method as Experiment 13 was added to the M0 (at 0.3 ppm, 1 ppm or 3 ppm). At 48 hours after incubation, the oxygen consumption rate (OCR) was measured using a flux analyzer. Each measured value was calibrated by the number of cells determined by counting the cell nuclei stained by addition of Hoechst (FIG. 21).
M0 and M2 differentiated from THP-1 were prepared by the same method as Experiment 2, linoleic acid, linolenic acid or juniperonic acid (3 ppm) was added to M0, and after 48 hours the oxygen consumption rate (OCR) was measured with a flux analyzer by the same method as Experiment 15. Each measured value was calibrated by the number of cells determined by counting the cell nuclei stained by addition of Hoechst.
The Basal OCR and mitochondrial respiration values for M0 were examined with the incubation time changed to 24 hours after addition of the hakushinin extract or unsaturated fatty acid. The experiment method was carried out by the same method as described in Experiment 17, except that the incubation time was changed to 24 hours after addition of the hakushinin extract or unsaturated fatty acid.

Structure (SMILES) | Basal OCR | mitochondrial respiration
CC/C=C\C/C=C\C/C=C\CCCC/C=C\CCCC(=O)O [juniperonic acid] | not significantly different | not significantly different
CCCCC/C=C\C/C=C\CCCCCCCC(=O)O [linoleic acid] | not significantly different | not significantly different
